Source: US20230041334A1, “METHODS AND COMPOSITIONS FOR SMOKING CESSATION” (BEHAVIORAL DIAGNOSTICS, LLC, priority 2019, published 2023)

Experiments:
Assay type in all cases: in vivo, human
[1] = tested on: Smokers interested in stopping smoking; assay: Lung density (inflammation) by dual energy computerized tomography (DECT) in the sildenafil trial; settings: 20 mg/day
Experimental: (§1) Smokers interested in stopping smoking were imaged using a dual energy computerized tomography (DECT) protocol to determine baseline lung density and perfusion, then randomized to receive either 20 mg of sildenafil or placebo each day. Subjects were then followed each month for three months (i.e., 30, 60 and 90 days) to asses changes in lung density via DECT and alterations in the diffusing capacity of the lung for carbon monoxide (DLCO) (e.g., improved gas exchange) in conjunction with the determination of the level of smoking cessation by means of serum cotinine levels. As per standard protocol, the research team was blinded to treatment group until the subject had exited the trial and DECT image analysis was completed. Importantly, because serum cotinine levels were used to determine smoking cessation status, subjects were not allowed to use nicotine replacement therapy. However, in order to encourage the likelihood of smoking cessation, subjects were given incentive-based programming.

[2] = tested on: Smokers interested in stopping smoking; assay: Randomized placebo-controlled sildenafil smoking cessation trial with incentive-based programming; cessation determined by serum cotinine
Experimental: as §1
In this paradigm, subjects are financially rewarded for smoking cessation (see, for example, Alford et al., 2010, PNAS USA, 107:7485-90; Iyer et al., 2016, Am. J. Resp. Crit. Care Med., 193:652-61).
The results were analyzed from the first 48 subjects who enrolled in the study. Briefly, the subjects in the cohort were largely of European ancestry, and the cohort was evenly balanced between males and females, with subjects of both genders tending to be between 30 and 60 years of age. As evidenced by their pre-experiment serum cotinine levels, they also tended to be moderate to heavy smokers.
In order to qualify for the financial incentive of $400, the subjects had to complete all 4 visits (intake and 3 follow-up visits at 30, 60 and 90 days) and had to quit smoking as evidenced by serum cotinine levels. In total, of the first 48 subjects enrolled in the study, 9 subjects completed just the intake, 7 subjects participated in both the intake and first visit, and 31 subjects completed all 4 visits in the study (Table 3). Data from one subject who dropped immediately from the study is not available.

[3] = tested on: Smokers interested in stopping smoking; assay: Diffusing capacity of the lung for carbon monoxide (DLCO) in the sildenafil trial; settings: 20 mg/day
Experimental: as §1

[4] = group who successfully stopped smoking for 90 days on sildenafil
[5] = sildenafil without smoking cessation

CCCc1nn(C)c2c(=O)[nH]c(-c3cc(S(=O)(=O)N4CCN(C)CC4)ccc3OCC)nc12 [Sildenafil, sildenafil]
Change in lung density (inflammation) [1, 4]: significant loss of lung density | Change in lung density (inflammation) [1, 5]: no significant change | Cessation: <50% reduction of cotinine (number of subjects) ([2]; 20 mg sildenafil each day, N=24): 3 | Cessation: Visits with <2 ng/ml cotinine (number of visits) ([2]; 20 mg sildenafil each day, N=24, 30-, 60- and 90-day visits): 36 | Cessation: Quit at 90 days (number of subjects) ([2]; 20 mg sildenafil each day, N=24, by serum cotinine): 12 | Follow-up visits with negative serum cotinine values (<2 ng/ml) ([2]; 20 mg/day, 30-, 60- and 90-day visits, vs. placebo p<0.002, Exact Test): 36 of 72 | Females having achieved abstinence at 90 days (negative serum cotinine) ([2]; 20 mg/day, females): 6 | Full or partial response of treatment (≥average 50% reduction of intake cotinine levels compared to average of 30-, 60- and 90-day visits) (subjects) ([2]; 20 mg/day, intention to treat, vs. placebo p<0.02 Exact Test): 15 of 24 | Complete cessation (subjects) ([2]; 20 mg/day, intention to treat, vs. placebo p<0.09, Exact Test): 12 of 24 | Males having achieved abstinence at 90 days (negative serum cotinine) ([2]; 20 mg/day, males): 6 | Change in DLCO [3, 4]: improvement in DLCO | Change in DLCO [3, 5]: no significant change
